These results are taken from patent US10765680B2, “Combination of a MCL-1 inhibitor and a taxane compound, uses and pharmaceutical compositions thereof” (priority 2017, dated 2020).

The term IC50 denotes the midpoint of a concentration-inhibition curve.

Assay [1] has as its system BT-20 breast cancer cell line. Briefly: 72 hours CellTiter-Glo proliferation assay, BT-20. In kind it is cell-based. As to conditions: single agent, read-out: Abs IC50. On the procedure:
(§1) Compounds were dissolved in 100% DMSO (Sigma, Catalog # D2438-50 ML) at a stock concentration of 10 mM and stored at −20° C. until use. Compounds were arrayed in 2 ml deep 96-well plates (Greiner bio-one, catalog number 780271) serially diluted 3-fold. Compound 1 was used over a concentration range of 0.0-10.0 μM. Paclitaxel was used over a concentration range of 0.0-1.0 μM in breast cancer cells and 0.0-2.0 μM range in lung cancer cells.
(§2) All cell lines were purchased from the American Type Culture Collection and cultured according to vendor recommendations. […] All cell lines were determined to be free of mycoplasma contamination by a PCR detection assay performed at Idexx Radil (Columbia, Mo., USA) and authenticated by SNP analysis. […] Cells were expanded to T-75 flasks and assessed for viability using a Beckman-Coulter ViCell counter prior to plating. […]
(§3) Cell proliferation was measured in 72 hours CellTiter-Glo™ (CTG) assays and all results shown are the result of at least triplicate measurements. […] After 72 hours of compound treatment the effects of compounds on cell proliferation was determined using the CellTiter-Glo™ Luminescent Cell Viability Assay (Promega, Catalog # G7573). This is a homogeneous method to determine the number of viable cells in culture based on quantitation of the ATP present, which signals the presence of metabolically active cells. […]
A general note: ATP-based viability assays read luminescence as a measure of living cells.

Assay [2] concerns BT-474 breast cancer cell line. Put plainly: 72 hours CellTiter-Glo proliferation assay, BT-474. In kind it is cell-based. As to conditions: single agent, read-out: Abs IC50. On the procedure:
as §1, §2, §3

The test system of assay [3] is HCC1143 breast cancer cell line. Put plainly: 72 hours CellTiter-Glo proliferation assay, HCC1143. The format is cell-based. As to conditions: single agent, read-out: Abs IC50. On the procedure:
as §1, §2, §3

The subject of assay [4] is HCC1500 breast cancer cell line. Put plainly: 72 hours CellTiter-Glo proliferation assay, HCC1500. The format is cell-based. As to conditions: single agent, read-out: Abs IC50. The protocol: as §1, §2, §3
The test system of assay [5] is HCC1937 breast cancer cell line. Put plainly: 72 hours CellTiter-Glo proliferation assay, HCC1937. The format is cell-based. As to conditions: single agent, read-out: Abs IC50. The protocol: as §1, §2, §3
The test system of assay [6] is HCC1954 breast cancer cell line. Put plainly: 72 hours CellTiter-Glo proliferation assay, HCC1954. The format is cell-based. As to conditions: single agent, read-out: Abs IC50. On the procedure:
as §1, §2, §3

Assay [7] deals with HCC38 breast cancer cell line. Put plainly: 72 hours CellTiter-Glo proliferation assay, HCC38. In kind it is cell-based. The conditions noted are these: single agent, read-out: Abs IC50. On the procedure:
as §1, §2, §3

Assay [8] concerns MDA-MB-157 breast cancer cell line. Briefly: 72 hours CellTiter-Glo proliferation assay, MDA-MB-157. In kind it is cell-based. As to conditions: single agent, read-out: Abs IC50. The protocol: as §1, §2, §3
The subject of assay [9] is MDA-MB-453 breast cancer cell line. Briefly: 72 hours CellTiter-Glo proliferation assay, MDA-MB-453. The conditions noted are these: single agent, read-out: Abs IC50. In kind it is cell-based. The protocol:
as §1, §2, §3

The test system of assay [10] is MDA-MB-468 breast cancer cell line. Put plainly: 72 hours CellTiter-Glo proliferation assay, MDA-MB-468. In kind it is cell-based. The conditions noted are these: single agent, read-out: Abs IC50. The protocol:
as §1, §2, §3

The test system of assay [11] is A549 lung cancer cell line. Put plainly: 72 hours CellTiter-Glo proliferation assay, A549. The format is cell-based. As to conditions: single agent, read-out: Abs IC50. The protocol:
as §1, §2, §3

Another assay has as its system TNBC 110T PDX model. Briefly: TNBC 110T PDX model, tumor growth and survival (Compound 1, docetaxel). In kind it is in vivo, NOD-SCID-IL2Rγc−/− female mice. As to conditions: Compound 1 15 mg/kg i.v. twice weekly for six weeks. On the procedure: A cohort of 40 female NSG mice was seeded with thawed single cell suspensions of early passage human breast tumors (TNBC PDX110). Briefly, 100,000 cells were resuspended in 10 μl of transplantation buffer (50% fetal calf serum, 10% of a 0.04% trypan blue solution and 40% PBS) and growth-factor-reduced Matrigel [BD] at a ratio of 3:1, and injected into the cleared mammary fat pads of 3- or 4-week-old NOD-SCID-IL2Rγc^−/− female mice. […] Once tumors reached a volume of 60-110 mm^3, mice were randomized into treatment arms and treatment commenced. Docetaxel or its vehicle was prepared by dissolving stock solution (20 mg/ml) with PBS and injected i.p. every 21 days for two treatment cycles. The duration of therapy is indicated by the bar. […] Compound 1 (15 mg/kg) or its vehicle was injected i.v. twice weekly for six weeks. Mice were sacrificed at the first measurement where tumor volume exceeded 600 mm^3, or if their health deteriorated for reasons other than disease progression or drug toxicity (censored event). n=9-10 mice per treatment group.

The subject of assay [12] is TNBC PDX model OD-BRE-00589. Put plainly: TNBC PDX model OD-BRE-00589, antitumor activity. In kind it is in vivo, female SCID mice. The conditions noted are these: Compound 1 70 mg/kg iv once, liposomal formulation. The protocol: Docetaxel was formulated in 5% ethanol, 5% PS80 and 90% Glucose at 0.67 mg/ml to administer 10 mg/kg. […] OD-BRE-00589 is a triple negative breast cancer PDX, obtained from the IMODI consortium. […] It was grafted on SCID mice as fragments of 27 mm^3 volume. […] The administrations were performed once in the caudal vein.

Regarding `COc1ccccc1-c1nccc(COc2ccccc2C[C@@H](Oc2ncnc3sc(-c4ccc(F)cc4)c(-c4ccc(OCCN5CCN(C)CC5)c(Cl)c4C)c23)C(=O)O)n1` [Compound 1, (2R)-2-{[(5Sa)-5-{3-chloro-2-methyl-4-[2-(4-methylpiperazin-1-yl)ethoxy]phenyl}-6-(4-fluorophenyl)thieno[2,3-d]pyrimidin-4-yl]oxy}-3-(2-{[2-(2-methoxyphenyl)pyrimidin-4-yl]methoxy}phenyl)propanoic acid], the IC50 in assay [1] was 653 nM; in [2], 1260 nM; in assay [3], greater than 10000 nM; in assay [4] it was 258 nM; in assay [5], 137 nM; in [6] it was 158 nM. Besides, the 50% inhibitory concentration (IC50) was 3380 nM in [7]; greater than 10000 nM in [8]; greater than 10000 nM in assay [9]; 9920 nM in assay [10]; greater than 10000 nM in assay [11]. The “inhibition of tumor growth, single agent” value (in the assay on TNBC 110T PDX model; in assay [12]) was “insufficient in inhibiting tumor growth” throughout.
